Test results as given in paper PMC11302688, “The Effect of Replication Protein A Inhibition and Post-Translational Modification on ATR Kinase Signaling” (Research Square, 2024).
Read-outs that look alike come from different tables or passages of the source. One block for each molecule: values may come before it.

What was measured:
ATR-ATRIP = molecular target: T1, ATR-ATRIP (Homo sapiens, UniProt P27694); assay: Reconstituted ATR kinase assay (western blot of phosphorylation targets); format: biochemical; details: for IC50: fully reconstituted ATR kinase reaction; for ATR-dependent phosphorylation of RPA32 Ser33 and Thr21 / ATR-dependent phosphorylation of p53 Ser15: reconstituted reaction with ssDNA, RPA, TopBP1, ATR-ATRIP, western blot
T1 construct: His (C); purchased Eurofins DiscoverX 14–953
Source text: The minimal requirements to reconstitute ATR signaling in vitro are ssDNA, RPA, TopBP1, and ATR-ATRIP, and a phosphorylation target[51]–[54]. We used a similar experimental design with purified RPA, TopBP1, p53, and ATR-ATRIP, and reconstituted ATR activation and signaling using an M13mp18 ssDNA plasmid (Figure S1A-B). It has been reported that TopBP1 can stimulate ATR activity independent of RPA and in the presence or absence of a variety of DNA substrates at specific protein and salt concentrations, though the physiological relevance is unknown. We, therefore, first established physiological experimental conditions to reflect the dependence of ATR kinase activity on RPA, ssDNA, and TopBP1 by monitoring the phosphorylation of the ATR target p53 at Ser15. Low, background levels of ATR-dependent p53 phosphorylation are observed with various combinations of ssDNA, RPA, and TopBP1, however, as expected, maximal activation is observed only in the presence of all three (Fig. 1A–B). Importantly, p53 phosphorylation under our assay conditions was dependent upon RPA and ssDNA. […] (Fig. 1A–B). The RPA70 OB-F domain interacts with p53, and this interaction is thought to facilitate the recruitment of p53 for ATR phosphorylation. p53 also has weak ssDNA binding affinity that could influence it as a substrate for ATR, so we next compared the phosphorylation of wild-type (WT) p53 with that of the DNA-binding-impaired p53 R175H mutant. […] We then evaluated the impact of chemical RPA inhibition on ATR-dependent p53 phosphorylation in the reconstituted reactions. We first assessed the activity of RPA inhibitors that block the RPA-ssDNA interaction (RPA-DBi).
Kinase assays were performed in 15 mM HEPES pH 7.9, 30 mM KCl, 3 mM MgCl2, 5% glycerol, 1x phosphatase inhibitor cocktail 2 (Sigma-Aldrich, P5726), 0.5 mM DTT. RPAi were suspended in 100% DMSO, and the DMSO concentration in the final reaction mixture was kept constant at 5%. In a typical reaction (20 μL), 20 ng ATR-ATRIP, 20 nM TopBP1, 20 nM RPA, and 40 nM p53 were initially incubated on ice for 15 min. Reactions were initiated by the addition of 100 μM ATP and 1 ng M13mp18 ssDNA plasmid and incubated at 37°C for 1 hr. Reactions were quenched by the addition of 6x Laemmli buffer and brief boiling at 95°C. For reactions with RPAi, inhibitors were added for the initial 15 min incubation on ice. For reactions with pRPA, the indicated proteins (same concentrations as above) were incubated with 0.5 ng/μL DNA-PK, 100 μM ATP, and 1 ng M13mp18 ssDNA plasmid for 30 min at 37°C. Reactions were moved back to ice and 100 nM NU7441 was added to inhibit further DNA-PK kinase activity (for subsequent ATR kinase reactions) or quenched with 6x Laemmli buffer and brief boiling at 95°C (for control reactions). The remaining components required for ATR kinase reaction were then added to each reaction as indicated and returned to 37°C for 1 hr before quenching in the same manner as above. Proteins were separated by SDS-PAGE and transferred to polyvinylidene difluoride (PVDF) membranes (Bio-Rad, 1620177). Immunoblotting for RPA32 pSer33 (Thermo Fisher Scientific, A300–246A), RPA32 pSer4/8 (Thermo Fisher Scientific, A300–245A), RPA32 (Thermo Fisher Scientific, PA5–2256), and TopBP1 pSer1138 (Thermo Fisher Scientific, PA5–114666) were conducted in Tris-buffered saline (TBS)/0.5% Tween20 and immunoblotting for p53 pSer15 (Cell Signaling Technology, 9284S), p53 (Cell Signaling Technology, 2524S), and RPA32 pThr21 (Thermo Fisher Scientific, PA5–104809) were conducted in TBS/0.1% Tween20. All membranes were blocked with 2% BSA in TBS/Tween20 and incubated rocking at 4°C overnight. Membranes were washed with TBS/Tween20 and incubated with the corresponding IgG-horseradish peroxidase (HRP) secondary antibody (Bio-Rad, 1706515 & 1706516) for two hours at room temperature with orbital shaking. […]

RPA [1] = molecular target: T2, RPA (Homo sapiens, UniProt P27694); details: read-out: in vitro RPA-DNA binding inhibition IC50; cited from earlier work
T2 construct: His (C); made in house; host or cells: E. coli BL21(DE3)

[2] = test system: ATR phosphorylation events; parameters: method as in PMID 25070753; details: cited from earlier work
RPA [3] = molecular target: T2, RPA; parameters: method as in PMID 25070753; details: cited from earlier work
[4] = molecular target: RPA (His-tagged heterotrimer RPA70/RPA32/RPA14) (UniProt P27694;P15927;P35244 1-616;1-270;1-121); assay: EMSA; binding not disrupted by PAME 12.5-200 uM; PAME EMSA: 10 mM Tris pH 7.5, 10 mM NaCl, 10% glycerol, 25 C, 10 nM DNA, 7 nM (ssDNA) or 14 nM (duplex) RPA, 1% agarose; acetylation EMSA: 20 mM HEPES pH 7.8, 50 mM NaCl, 1 mM DTT, 5% DMSO, 0.001% NP-40, RT, 2.5 nM DNA, 6% native PAGE; details: protein: recombinant; tags: His (on RPA70, plasmid p11d-tRPA70-His); copies: 1;1;1; label: 5' IRDye700; single strand
Sequence of RPA (His-tagged heterotrimer RPA70/RPA32/RPA14) (P27694 whole entry, chain 1 of 3): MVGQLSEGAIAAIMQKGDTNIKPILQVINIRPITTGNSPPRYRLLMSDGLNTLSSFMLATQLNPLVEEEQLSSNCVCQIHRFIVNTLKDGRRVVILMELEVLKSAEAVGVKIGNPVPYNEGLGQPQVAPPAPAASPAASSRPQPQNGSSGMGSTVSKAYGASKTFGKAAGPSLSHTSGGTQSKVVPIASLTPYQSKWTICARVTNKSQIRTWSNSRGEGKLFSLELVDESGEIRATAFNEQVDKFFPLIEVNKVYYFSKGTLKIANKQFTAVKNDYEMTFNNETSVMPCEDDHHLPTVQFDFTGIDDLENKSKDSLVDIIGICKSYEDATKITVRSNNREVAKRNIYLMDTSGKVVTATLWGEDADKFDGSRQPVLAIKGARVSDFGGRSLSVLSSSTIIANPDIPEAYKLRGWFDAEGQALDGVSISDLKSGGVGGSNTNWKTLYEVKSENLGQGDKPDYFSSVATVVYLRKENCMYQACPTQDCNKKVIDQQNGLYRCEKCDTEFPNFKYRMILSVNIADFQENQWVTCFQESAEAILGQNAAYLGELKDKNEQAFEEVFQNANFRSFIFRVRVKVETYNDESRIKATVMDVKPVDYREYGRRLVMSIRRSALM
Sequence of RPA (His-tagged heterotrimer RPA70/RPA32/RPA14) (P15927 whole entry, chain 2 of 3): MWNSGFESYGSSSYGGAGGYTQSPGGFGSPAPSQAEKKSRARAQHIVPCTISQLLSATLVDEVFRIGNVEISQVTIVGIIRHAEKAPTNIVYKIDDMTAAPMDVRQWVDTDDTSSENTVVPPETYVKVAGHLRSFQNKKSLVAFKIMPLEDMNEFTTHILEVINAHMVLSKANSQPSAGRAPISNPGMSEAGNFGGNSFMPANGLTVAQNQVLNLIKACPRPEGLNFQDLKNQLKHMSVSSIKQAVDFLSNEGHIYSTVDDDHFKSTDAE
Sequence of RPA (His-tagged heterotrimer RPA70/RPA32/RPA14) (P35244 whole entry, chain 3 of 3): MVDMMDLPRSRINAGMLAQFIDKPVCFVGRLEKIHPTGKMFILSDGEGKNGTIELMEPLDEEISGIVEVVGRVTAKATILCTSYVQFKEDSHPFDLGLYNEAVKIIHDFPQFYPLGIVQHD

T1 sequence (P27694 whole entry): as the sequence (P27694 whole entry, chain 1 of 3) above
T1 sequence (P15927 whole entry partner): as the sequence (P15927 whole entry, chain 2 of 3) above
T1 sequence (P35244 whole entry partner): as the sequence (P35244 whole entry, chain 3 of 3) above
T2 sequence (P27694 whole entry): as the sequence (P27694 whole entry, chain 1 of 3) above
T2 sequence (P15927 whole entry partner): as the sequence (P15927 whole entry, chain 2 of 3) above
T2 sequence (P35244 whole entry partner): as the sequence (P35244 whole entry, chain 3 of 3) above

IC50 (ATR-ATRIP; read-out: IC50 for ATR-dependent RPA32 Ser33 phosphorylation): 5 to 10 µM | IC50 (ATR-ATRIP; read-out: IC50 for ATR-dependent RPA32 Thr21 phosphorylation): 5 to 10 µM | IC50 (ATR-ATRIP; read-out: IC50 for ATR-dependent p53 Ser15 phosphorylation): 5 to 10 µM | RPA phosphorylation at RPA32 Ser33 and Thr21 at low inhibitor concentration (ATR-ATRIP; low concentrations of inhibitor (Fig. 2C, lane 3), not observed with p53 Ser15): stimulated | ATR-dependent phosphorylation of RPA32 Ser33 and Thr21 (ATR-ATRIP): dose-dependent inhibition | ATR-dependent phosphorylation of p53 Ser15 (ATR-ATRIP): titratable inhibition
Molecule: CCOc1ccc2cc(C3CC(c4ccc(I)cc4)=NN3C(=O)CCCC(=O)O)c(Cl)nc2c1 (stereo not drawn) [TDRL-551]
IC50 (RPA [1]): ~15 µM

IC50 for RPA32 phosphorylation (both residues) lower than that of p53 phosphorylation (ATR-ATRIP; RPA32 Ser33 and Thr21 vs p53 Ser15): ~ 10 fold | ATR-dependent phosphorylation of RPA32 Ser33 and Thr21 (ATR-ATRIP): inhibited | ATR-dependent phosphorylation of p53 Ser15 (ATR-ATRIP): inhibited
Molecule: O=C1C=Cc2ccccc2/C1=C/Nc1ccccc1O [HAMNO, (1Z)-1-[(2-hydroxyanilino)methylidene]naphthalen-2-one]
levels of ATR phosphorylation events in treated cells [2]: lower levels of ATR phosphorylation events | RPA ssDNA binding (RPA [3]): did not disrupt

Molecule: CS(=O)(=O)c1ccc(-c2cnc(N)c(C(=O)Nc3ccccc3)n2)cc1 [VE-821]
ATR-dependent phosphorylation of RPA32 Ser33 and Thr21 (ATR-ATRIP): abolished | ATR-dependent phosphorylation of p53 Ser15 (ATR-ATRIP): no p53 phosphorylation is observed

B1: polyT 30mer (ssDNA)
DNA: TTTTTTTTTTTTTTTTTTTTTTTTTTTTTT
binding result [4]: binds
